Results published in ChEMBL document CHEMBL1909046, “DrugMatrix in vitro pharmacology data”.

Assays:
[1] = target: T1, Adenosine receptor A3 (Homo sapiens, UniProt P0DMS8); format: cell membranes, CHO-K1, Membrane; settings: cho-k1;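 note: radioligand binding assay with AB-MECA serving as the labeled ligand; in other assays of this panel Not Active means under 50% inhibition at 10 µM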
T1 sequence (P0DMS8 whole entry): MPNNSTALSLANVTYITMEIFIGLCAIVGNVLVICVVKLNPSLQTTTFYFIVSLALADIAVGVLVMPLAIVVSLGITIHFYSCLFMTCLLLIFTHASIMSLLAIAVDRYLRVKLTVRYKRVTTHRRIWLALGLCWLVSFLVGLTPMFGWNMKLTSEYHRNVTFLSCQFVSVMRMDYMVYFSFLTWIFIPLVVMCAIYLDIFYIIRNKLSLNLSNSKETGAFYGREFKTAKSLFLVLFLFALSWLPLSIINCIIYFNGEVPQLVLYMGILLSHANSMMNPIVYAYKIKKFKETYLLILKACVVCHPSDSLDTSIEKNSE

[2] = target: cGMP-specific 3',5'-cyclic phosphodiesterase (Homo sapiens, UniProt O76074); assay: DRUGMATRIX: Phosphodiesterase PDE5 enzyme inhibition (substrate: [3H]cGMP + cGMP); format: tissue-based; settings: platelet; Not Active = under 50% inhibition at 10 µM
[3] = target: Tyrosine-protein kinase Lck (Homo sapiens, UniProt P06239); assay: DRUGMATRIX: Protein Tyrosine Kinase, LCK enzyme inhibition (substrate: Poly(Glu:Tyr)); format: cell-based, Insect cells; settings: insect cells; Not Active = under 50% inhibition at 10 µM
Sequence of Tyrosine-protein kinase Lck (P06239 whole entry): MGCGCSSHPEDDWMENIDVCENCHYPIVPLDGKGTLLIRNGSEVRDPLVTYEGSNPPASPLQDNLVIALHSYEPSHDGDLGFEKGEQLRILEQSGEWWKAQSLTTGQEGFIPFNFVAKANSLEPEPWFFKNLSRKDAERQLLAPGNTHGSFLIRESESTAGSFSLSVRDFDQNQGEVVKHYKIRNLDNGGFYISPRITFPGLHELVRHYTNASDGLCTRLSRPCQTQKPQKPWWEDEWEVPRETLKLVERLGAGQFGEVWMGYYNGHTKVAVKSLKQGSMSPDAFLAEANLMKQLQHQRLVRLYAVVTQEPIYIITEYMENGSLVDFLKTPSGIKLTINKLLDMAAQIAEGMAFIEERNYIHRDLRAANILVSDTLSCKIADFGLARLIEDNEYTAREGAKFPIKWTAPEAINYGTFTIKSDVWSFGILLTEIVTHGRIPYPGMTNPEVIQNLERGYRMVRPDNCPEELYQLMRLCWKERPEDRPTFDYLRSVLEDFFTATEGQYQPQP

[4] = target: Cytochrome P450 2E1 (Homo sapiens, UniProt P05181); settings: bti-tn-5b1-4; note: in other assays of this panel Not Active means under 50% inhibition at 10 µM
Sequence of Cytochrome P450 2E1 (P05181 whole entry): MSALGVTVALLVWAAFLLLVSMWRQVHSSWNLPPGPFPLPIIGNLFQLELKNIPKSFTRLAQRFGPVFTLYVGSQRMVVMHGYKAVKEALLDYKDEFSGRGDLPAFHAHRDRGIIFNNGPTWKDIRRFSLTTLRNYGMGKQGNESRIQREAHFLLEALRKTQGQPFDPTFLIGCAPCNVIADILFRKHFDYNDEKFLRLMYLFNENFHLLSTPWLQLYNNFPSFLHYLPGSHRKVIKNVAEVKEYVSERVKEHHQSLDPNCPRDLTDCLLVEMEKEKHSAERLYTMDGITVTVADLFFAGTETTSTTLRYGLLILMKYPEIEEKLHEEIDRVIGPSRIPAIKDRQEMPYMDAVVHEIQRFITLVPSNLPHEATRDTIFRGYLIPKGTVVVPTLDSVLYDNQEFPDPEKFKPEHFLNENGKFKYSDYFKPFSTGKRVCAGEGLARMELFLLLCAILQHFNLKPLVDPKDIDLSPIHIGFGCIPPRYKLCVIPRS

[5] = target: Insulin receptor (Rattus norvegicus, UniProt P15127); format: cell membranes, Wistar, Liver, Membrane; note: in other assays of this panel Not Active means under 50% inhibition at 10 µM
Sequence of Insulin receptor (P15127 27-759 limits assumed): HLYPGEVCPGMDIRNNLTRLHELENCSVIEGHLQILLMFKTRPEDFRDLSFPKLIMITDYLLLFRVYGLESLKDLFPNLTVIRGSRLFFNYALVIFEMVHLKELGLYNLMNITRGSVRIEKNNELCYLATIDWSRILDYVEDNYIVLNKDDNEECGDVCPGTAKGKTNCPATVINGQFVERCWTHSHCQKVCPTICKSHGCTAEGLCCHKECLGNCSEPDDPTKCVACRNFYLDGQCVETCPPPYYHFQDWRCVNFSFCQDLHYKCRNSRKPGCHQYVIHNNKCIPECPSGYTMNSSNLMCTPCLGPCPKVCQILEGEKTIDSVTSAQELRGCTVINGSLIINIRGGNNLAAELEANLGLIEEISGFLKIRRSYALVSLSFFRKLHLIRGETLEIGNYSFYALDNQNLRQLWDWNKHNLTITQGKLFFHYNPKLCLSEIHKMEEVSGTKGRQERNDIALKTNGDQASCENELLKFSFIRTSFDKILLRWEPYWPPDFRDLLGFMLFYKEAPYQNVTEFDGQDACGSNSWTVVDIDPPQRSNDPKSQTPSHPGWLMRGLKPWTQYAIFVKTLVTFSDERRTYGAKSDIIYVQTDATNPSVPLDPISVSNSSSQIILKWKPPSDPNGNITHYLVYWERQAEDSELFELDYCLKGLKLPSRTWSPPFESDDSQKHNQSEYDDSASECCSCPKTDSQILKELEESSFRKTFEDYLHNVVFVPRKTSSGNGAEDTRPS
Sequence of Insulin receptor (P15127 764-1383 limits assumed): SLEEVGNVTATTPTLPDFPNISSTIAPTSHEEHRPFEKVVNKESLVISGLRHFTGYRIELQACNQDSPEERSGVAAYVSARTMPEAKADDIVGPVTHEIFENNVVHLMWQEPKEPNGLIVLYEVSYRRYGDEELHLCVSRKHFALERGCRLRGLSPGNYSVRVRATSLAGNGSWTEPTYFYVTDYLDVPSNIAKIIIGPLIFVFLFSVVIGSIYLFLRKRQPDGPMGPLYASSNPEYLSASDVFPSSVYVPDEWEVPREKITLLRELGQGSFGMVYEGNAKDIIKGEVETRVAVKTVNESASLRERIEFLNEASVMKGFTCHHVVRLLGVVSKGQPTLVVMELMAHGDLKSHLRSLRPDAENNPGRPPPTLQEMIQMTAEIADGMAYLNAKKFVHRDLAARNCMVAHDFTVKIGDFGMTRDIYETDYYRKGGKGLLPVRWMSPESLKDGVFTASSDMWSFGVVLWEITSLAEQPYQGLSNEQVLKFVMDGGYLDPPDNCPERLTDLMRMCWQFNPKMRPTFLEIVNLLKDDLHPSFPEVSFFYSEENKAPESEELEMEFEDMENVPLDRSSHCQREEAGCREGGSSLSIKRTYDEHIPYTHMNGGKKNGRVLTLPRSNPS

[6] = target: Beta-1 adrenergic receptor (Homo sapiens, UniProt P08588); assay: DRUGMATRIX: Adrenergic beta1 radioligand binding (ligand: [125I] Cyanopindolol); format: cell membranes, CHO-K1, Membrane; settings: cho-k1; Not Active = under 50% inhibition at 10 µM
Sequence of Beta-1 adrenergic receptor (P08588 whole entry): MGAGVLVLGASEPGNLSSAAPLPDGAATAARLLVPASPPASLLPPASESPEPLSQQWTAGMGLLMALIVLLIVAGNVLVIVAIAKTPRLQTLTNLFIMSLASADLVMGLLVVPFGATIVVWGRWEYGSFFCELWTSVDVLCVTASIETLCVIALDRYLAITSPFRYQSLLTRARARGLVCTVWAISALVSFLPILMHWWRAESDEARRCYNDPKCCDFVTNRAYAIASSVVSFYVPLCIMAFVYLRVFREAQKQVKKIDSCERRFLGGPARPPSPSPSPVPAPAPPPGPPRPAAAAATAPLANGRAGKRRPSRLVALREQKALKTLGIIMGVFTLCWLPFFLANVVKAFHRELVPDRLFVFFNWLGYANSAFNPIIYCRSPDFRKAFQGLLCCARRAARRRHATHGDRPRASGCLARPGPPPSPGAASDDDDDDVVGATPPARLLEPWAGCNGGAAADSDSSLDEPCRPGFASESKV

[7] = DRUGMATRIX: Purinergic P2X radioligand binding (ligand: [3H] alpha, beta-Methylene-ATP); format: cell membranes, Oryctolagus cuniculus, New Zealand albino, Urinary bladder, Membrane; settings: Not Active = under 50% inhibition at 10 µM
[8] = DRUGMATRIX: ATPase, Na+/K+ enzyme inhibition (substrate: ATP); format: tissue-based, Sus scrofa, Heart; settings: Not Active = under 50% inhibition at 10 µM
[9] = DRUGMATRIX: Nicotinic Acetylcholine radioligand binding (ligand: [125I] Epibatidine); format: cell membranes, Membrane; settings: imr-32; Not Active = under 50% inhibition at 10 µM
[10] = target: Prostaglandin G/H synthase 1 (Homo sapiens, UniProt P23219); assay: biochemical; format: tissue-based, Platelet; settings: platelet;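 note: inhibition of COX-1 enzyme activity, with arachidonic acid supplied as substrate; in other assays of this panel Not Active means under 50% inhibition at 10 µM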
Sequence of Prostaglandin G/H synthase 1 (P23219 whole entry): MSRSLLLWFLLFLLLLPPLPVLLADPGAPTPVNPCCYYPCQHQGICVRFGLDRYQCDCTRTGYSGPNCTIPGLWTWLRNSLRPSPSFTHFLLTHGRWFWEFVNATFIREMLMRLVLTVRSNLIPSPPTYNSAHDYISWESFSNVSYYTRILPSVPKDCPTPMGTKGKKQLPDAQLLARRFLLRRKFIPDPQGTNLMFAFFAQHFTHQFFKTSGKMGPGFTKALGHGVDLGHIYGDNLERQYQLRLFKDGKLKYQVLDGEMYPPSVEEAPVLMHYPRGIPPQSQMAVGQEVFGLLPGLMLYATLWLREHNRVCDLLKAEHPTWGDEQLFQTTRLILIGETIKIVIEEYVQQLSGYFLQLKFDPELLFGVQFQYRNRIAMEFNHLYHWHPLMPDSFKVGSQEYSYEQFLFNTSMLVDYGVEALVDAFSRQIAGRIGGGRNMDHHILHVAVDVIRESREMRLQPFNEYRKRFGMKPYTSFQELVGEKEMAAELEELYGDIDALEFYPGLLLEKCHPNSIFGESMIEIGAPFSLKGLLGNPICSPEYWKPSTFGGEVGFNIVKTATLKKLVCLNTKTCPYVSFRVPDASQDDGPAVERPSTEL

[11] = target: Beta-3 adrenergic receptor (Homo sapiens, UniProt P13945); assay: DRUGMATRIX: Adrenergic beta3 radioligand binding (ligand: [125I] Cyanopindolol); format: cell membranes, Membrane; settings: hek293; Not Active = under 50% inhibition at 10 µM
Sequence of Beta-3 adrenergic receptor (P13945 whole entry): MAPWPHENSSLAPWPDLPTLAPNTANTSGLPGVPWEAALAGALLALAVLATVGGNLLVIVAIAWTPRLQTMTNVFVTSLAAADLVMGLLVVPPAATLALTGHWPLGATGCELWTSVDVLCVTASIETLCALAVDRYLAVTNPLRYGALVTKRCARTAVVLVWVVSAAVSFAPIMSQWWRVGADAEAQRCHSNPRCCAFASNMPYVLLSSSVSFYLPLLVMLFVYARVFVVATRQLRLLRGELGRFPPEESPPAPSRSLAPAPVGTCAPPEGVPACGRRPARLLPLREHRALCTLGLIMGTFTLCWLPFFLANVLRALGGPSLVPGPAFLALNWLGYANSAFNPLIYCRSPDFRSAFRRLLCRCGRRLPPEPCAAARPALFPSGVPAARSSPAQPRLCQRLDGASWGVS

CC(C)C[C@H](NC(=O)[C@@H](O)[C@H](N)Cc1ccccc1)C(=O)O [UBENIMEX]
Not Active: IC50 [1] | IC50 [2] | IC50 [3] | IC50 [4] | Ki [4] | IC50 [5] | IC50 [6] | IC50 [7] | Ki [7] | IC50 [8] | Ki [8] | IC50 [9] | Ki [9] | IC50 [10] | IC50 [11]

Cc1onc(-c2ccccc2)c1-c1ccc(S(N)(=O)=O)cc1 [VALDECOXIB]
Not Active: IC50 [1] | IC50 [2] | IC50 [3] | IC50 [4] | Ki [4] | IC50 [5] | IC50 [6] | IC50 [7] | Ki [7] | IC50 [8] | Ki [8] | IC50 [9] | Ki [9] | IC50 [10] | IC50 [11]

CC[C@]1(O)C[C@@H]2CN(CCc3c([nH]c4ccccc34)[C@@](C(=O)OC)(c3cc4c(cc3OC)N(C)[C@H]3[C@@](O)(C(=O)OC)[C@H](OC(C)=O)[C@]5(CC)C=CCN6CC[C@]43[C@@H]65)C2)C1 [VINBLASTINE]
Not Active: IC50 [1] | IC50 [2] | IC50 [3] | IC50 [4] | Ki [4] | IC50 [5] | IC50 [6] | IC50 [7] | Ki [7] | IC50 [8] | Ki [8] | IC50 [9] | Ki [9] | IC50 [10] | IC50 [11]

CC(=O)CC(c1ccccc1)c1c(O)c2ccccc2oc1=O (stereo not given) [WARFARIN]
Not Active: IC50 [1] | IC50 [2] | IC50 [3] | IC50 [4] | Ki [4] | IC50 [5] | IC50 [6] | IC50 [7] | Ki [7] | IC50 [8] | Ki [8] | IC50 [9] | Ki [9] | IC50 [10] | IC50 [11]

[Cl-].[Cl-].[Zn+2] [ZINC CHLORIDE]
Not Active: IC50 [1] | IC50 [2] | IC50 [3] | IC50 [4] | Ki [4] | IC50 [5] | IC50 [6] | IC50 [7] | Ki [7] | IC50 [8] | Ki [8] | IC50 [9] | Ki [9] | IC50 [10] | IC50 [11]
